Assay results as given in US7569530B1, “Antimicrobial compositions, products and methods employing same” (The Procter & Gamble Company, priority 2003, dated 2009).

Columns and labels:
COX-1 = COX-1 (Homo sapiens, UniProt P23219); experiment: In vitro cycloxygenase enzyme inhibition; type: biochemical; conditions: treatment sample at pH 3.0
Text: (§1) In vitro studies of the present invention and its key components have been conducted to assess the efficacy of the claimed compositions in inhibiting the cycloxygenase (COX) 1 and 2 enzymes. Said enzymes are adapted to convert arachidonic acid in cell membranes to prostaglandin, a messenger agent that conveys a signal to the cells to increase and enhance their inflammatory response. […] The results of this in vitro study have been documented in the below-listed chart.

COX-2 = target: T1, COX-2 (Homo sapiens, UniProt P35354); experiment: In vitro cycloxygenase enzyme inhibition; type: biochemical; conditions: treatment sample at pH 3.0
T1 sequence (P35354 18-604): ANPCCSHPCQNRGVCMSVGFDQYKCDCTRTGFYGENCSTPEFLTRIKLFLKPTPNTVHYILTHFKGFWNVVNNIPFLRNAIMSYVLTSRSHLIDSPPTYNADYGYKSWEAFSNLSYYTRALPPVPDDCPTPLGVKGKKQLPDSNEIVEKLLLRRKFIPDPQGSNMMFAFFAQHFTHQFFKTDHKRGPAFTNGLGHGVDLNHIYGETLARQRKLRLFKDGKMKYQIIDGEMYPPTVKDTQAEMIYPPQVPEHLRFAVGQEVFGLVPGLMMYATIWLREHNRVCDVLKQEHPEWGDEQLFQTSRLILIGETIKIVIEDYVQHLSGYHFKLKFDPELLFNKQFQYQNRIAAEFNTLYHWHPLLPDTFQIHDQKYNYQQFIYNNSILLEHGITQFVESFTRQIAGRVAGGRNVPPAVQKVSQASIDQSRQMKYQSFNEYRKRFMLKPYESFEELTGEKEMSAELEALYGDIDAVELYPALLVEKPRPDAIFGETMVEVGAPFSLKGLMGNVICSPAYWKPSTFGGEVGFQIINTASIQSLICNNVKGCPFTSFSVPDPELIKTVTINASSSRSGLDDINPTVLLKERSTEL
Text: as §1

Sequence of COX-1 (P23219 24-599): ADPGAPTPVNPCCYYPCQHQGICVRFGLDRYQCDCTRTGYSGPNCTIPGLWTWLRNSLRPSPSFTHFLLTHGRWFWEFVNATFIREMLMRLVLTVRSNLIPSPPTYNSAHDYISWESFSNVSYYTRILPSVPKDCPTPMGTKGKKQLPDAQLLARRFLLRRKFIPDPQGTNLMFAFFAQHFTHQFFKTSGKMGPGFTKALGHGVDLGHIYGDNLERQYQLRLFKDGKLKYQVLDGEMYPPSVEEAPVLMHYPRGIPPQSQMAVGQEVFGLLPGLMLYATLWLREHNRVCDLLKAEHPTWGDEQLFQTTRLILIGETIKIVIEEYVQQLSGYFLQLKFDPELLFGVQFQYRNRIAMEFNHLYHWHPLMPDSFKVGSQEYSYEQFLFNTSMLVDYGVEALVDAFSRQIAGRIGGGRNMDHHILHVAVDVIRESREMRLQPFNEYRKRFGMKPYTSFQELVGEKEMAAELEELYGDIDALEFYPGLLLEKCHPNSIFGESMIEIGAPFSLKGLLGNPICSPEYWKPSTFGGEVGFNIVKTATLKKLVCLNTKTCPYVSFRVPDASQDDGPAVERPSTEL

Compound | % of Initial Enzyme Activity COX-1 (COX-1) [%] | % of Initial Enzyme Activity COX-2 (COX-2) [%]
O=C1CC[C@@H](C(=O)O)N1 [B, Pyroglutamic Acid] | 100 | 92
O=C(O)CC(O)(CC(=O)O)C(=O)O [C, Citric Acid] | 94 | 100
Octyl Glyceryl Sulfonate | 55 | 95
